From US10704076B2, “Multi-tiered high through-put screen for compounds effective against bacterial biofilm and compounds effective for inhibiting and eradicating bacterial biofilm” (University of Cincinnati, priority 2013, dated 2020)
Entries after “also recorded” stand apart in the source; their conditions may differ.

Tests used:
[1] = tested on: A. baumannii biofilm; assay: HTS total biofilm formation assay (crystal violet staining); assay type: cell-based, Acinetobacter baumannii; details: for AC50: Acinetobacter baumannii, 10 point dose-response 0.1-50 μM
Description: Each HTS tier consisted of: (i) primary screening, (ii) confirmation screening and (iii) dose-response curve screening. Each tier of HTS included three distinct biological process assays. The first assay was an optical density measurement of bacteria growth in the presence of each compound reported as a total bacteria growth. In the second assay, resazurin solution was used as an indicator of metabolic activity to measure the live bacteria in the biofilms, reported as live biofilm. The final assay was crystal violet staining, which indicated the amount of biofilm formation and the effect of each compound on this process, reported as total biofilm formation.
Briefly, stationary phase bacteria grown in L-broth were diluted 1:200 into fresh L-broth and 50 μM of each test compound. After 20-24 hours, the optical density (OD560) of each suspension was measured using Zeiss Plate::Vision with a 560 BP filter (560 nm, 2.5% light intensity, 1 mm focus to bottom of plate, and exposure time of 100 ms). To measure bacterial viability in the biofilm, 50 μl of a 5 mg/ml resazurin solution in L-broth was added to each well after washing 3 times with 50 μl of PBS. The plates were then incubated at 37° C. for 30 or 180 min for A. baumannii and P. aeruginosa biofilms, respectively. Fluorescence was measured using Zeiss Plate::Vision at excitation and emission wavelengths of 535 and 580 nm, 100 ms exposure time, 2.5% intensity and a 2 mm focus to the bottom of the biofilms. To assess biofilm formation, plates were washed 3 times with PBS and then 50 μl of 0.01% of crystal violet was added to each well to assess bacterial biofilm formation as described in a similar borosilicate tube assay by O'Toole and Kolter. After incubation at room temperature for 30 min and removal of the crystal violet solution by washing with PBS, 95% ethanol was added to solubilize the crystal violet followed by incubation for 20 min at room temperature. Finally, the optical density of each plate was determined using measured by Zeiss Plate::Vision using the same settings used to measure total bacterial growth. These 3 steps were used in each of the three tiers for the HTS process: (i) single point primary screening at 10 μM, (ii) triplicate confirmation of hits from (i) at 10 μM and (iii) determination of AC50 values in 10 point dose-response at a concentration range of 0.1-50 μM) in hits from (ii). The AC50 represents the concentration of compound that inhibits 50% of bacterial growth, bacterial viability, or biofilm formation. Genedata Screener® Assay Analyzer Software (Ver. 9.0.0 Standard) was used to analyze data from all assay tiers. Compounds with an AC50 of less than 20 μM in one of the biological assays from the dose response screen were subject to additional investigation.

[2] = tested on: P. aeruginosa biofilm; assay: CLSM, co-culture of bacteria with compound (inhibition of biofilm formation); assay type: cell-based, Pseudomonas aeruginosa; details: for killing of residential bacteria, co-culture (CLSM, in words): 10 μM; for Co-culture of bacteria with compound: Killing: Y / —
Experimental: (§1) Broad spectrum agents (effective against all three bacterial species) and single agent compounds identified as HTS hits were investigated with CLSM confirmation of inhibition of biofilm formation (culture of bacteria with compounds) or killing of bacteria residing within an established biofilm (compound addition after culturing biofilm). To evaluate inhibition of P. aeruginosa biofilms, bacteria were sub-cultured into 10% L-broth and grown at 37° C. until the OD600 reached 0.25. The bacteria were further diluted 1:100 into a modified 0.5×M63 minimum media (50 mM KH2PO4, 7.5 mM (NH4)2SO4, 9 μM FeSO4, 0.5% casamino acids, 0.2% glucose, and 1 mM MgSO4). A. baumannii biofilms were also grown in 10% L-broth until the OD600 reached 0.05 but diluted 1:10 into 5% L-broth media. S. epidermidis biofilm cultures were grown. Briefly, the bacteria were grown in TSB until the OD600 reached 0.75, and a 1:100 dilution of the bacteria was sub-cultured into phosphate buffered saline (PBS). All of the biofilm bacterial cultures were grown in 96-well plate chambers (MatTek Corp., Ashland, Mass.) in the presence of 10 μM of each compound or DMSO as a control and incubated for 18 hrs at 37° C. To investigate the ability of compounds to kill bacteria within pre-existing biofilms, biofilms were grown under the same conditions, but without test compound. These biofilms were washed once with PBS and incubated an additional 24 hr at 37° C. in PBS containing 300 μM of each compound. All biofilm cultures were then washed twice with 100 μL of PBS and stained using the LIVE/DEAD® BacLight™ Bacterial Viability Kit (Invitrogen). Finally, biofilm images were obtained using a Zeiss LSM510 META Confocal Microscope (Carl Zeiss, Inc., Germany). A 488 nm laser was used in conjunction with a Plan-Apochromat 100×/1.4 Oil DIC objective. Z-stacks were 8 bit and measured 127.3 μm×127.3 μm×16.0 μm in size. The filters used were 505-530 and 620-680 IR, as the excitation and emission wavelengths for red fluorescence are 490 nm and 635 nm, respectively, and 480 nm and 500 nm for green fluorescence. Three dimensional images were generated using the “Projection” ability on LSM Image Browser software (v.1.4.0.121) or Zeiss LSM image browser software version 3.5 (Carl Zeiss, Inc., Germany), and Live/Dead calculations were conducted based upon these images using MacBiophotonics ImageJ following the guidelines in the cell counting guide by C. Labno {Rasband, 1997-2011 #25; Labno, #2} at the University of Chicago Integrated Light Microscopy Core. The thickness of the biofilm was calculated using Comstat software. A hit was defined as a >50% dead to live ratio.
(§2) The CLSM experiment was performed in one or two or all bacteria used in this study depending on its activity. For the validation of HTS hits, 10 μM of compound was added to each bacterial suspension and the resulting biofilm stained with LIVE/DEAD® BacLight™ Bacterial Viability Kit. The images were analyzed to determine the live and dead ratios of biofilm bacteria, the thickness of biofilms, and structural attributes of biofilms.

[3] = tested on: P. aeruginosa established biofilm; assay: CLSM, effect of compound on the pre-existing biofilm; assay type: cell-based, Pseudomonas aeruginosa; details: for Effect of compound on the pre-existing biofilm: Dispersion: ** = Bacterial morphology changed
Experimental: as §1, §2

Row | Structure (SMILES) | AC50 [1] [µM] | Co-culture of bacteria with compound: Inhibit biofilm formation ([2]; CLSM, 10 μM compound, 18 hrs) | biofilm architecture / thickness of established P. aeruginosa biofilm (CLSM) ([3]; 300 μM) | Effect of compound on the pre-existing biofilm: Dispersion ([3]; CLSM, 300 μM compound, 24 hr) | bacterial morphology in established P. aeruginosa biofilm (CLSM) [3] | killing of residential bacteria, co-culture (CLSM, in words) [2] | Co-culture of bacteria with compound: Killing ([2]; CLSM, 10 μM compound, 18 hrs) | killing of established P. aeruginosa biofilm (CLSM, in words) ([3]; 300 μM, 24 hr) | Effect of compound on the pre-existing biofilm: Killing ([3]; CLSM, 300 μM compound, 24 hr, Y / —) | HTS assay results: Biofilm Formation ([1]; Y / —)
1 | O=C(O)c1cn(C2CC2)c2c(F)c(-c3ccncc3)c(F)cc2c1=O [Compound 11, 7-(4-pyridyl)-1-cyclopropyl-6,8-difluoro-4-oxoquinoline-3-carboxylic acid] | 0.85 | no effect | thinner biofilm architecture | caused dispersion and Y** | altered the morphology | – | – | – | – | –
2 | Cn1sc(Cl)c(C#N)c1=O [Compound 3, 5-chloro-2-methyl-3-oxo-1,2-thiazole-4-carbonitrile] | 4.45 | – | – | – | – | killed residential bacteria | Y (A hit was defined as a >50% dead to live ratio) | demonstrated killing; also recorded: effective at killing | Y (A hit was defined as a >50% dead to live ratio) | –
3 | O=C(O)c1cn(C2CC2)c2c(F)c(N3CC(O)C3)c(F)cc2c1=O [Compound 8, 1-cyclopropyl-6,8-difluoro-7-(3-hydroxyazetidin-1-yl)-4-oxoquinoline-3-carboxylic acid] | – | – | thinner biofilm architecture | caused dispersion and Y** | altered the morphology | – | – | – | – | —* (AC50 higher than 20 μM)
4 | NC(=S)N1CCN(c2cc3c(cc2F)c(=O)c(C(=O)O)cn3C2CC2)CC1 [Compound 7, 7-(4-carbamothioylpiperazin-1-yl)-1-cyclopropyl-6-fluoro-4-oxoquinoline-3-carboxylic acid] | 17.7 | – | – | caused dispersion and Y** | altered the morphology | killed residential bacteria | Y (A hit was defined as a >50% dead to live ratio) | – | – | –
